In ChEMBL document CHEMBL1909046, “DrugMatrix in vitro pharmacology data”:

Columns and labels:
[1] = biological target: T1, Angiotensin-converting enzyme (Oryctolagus cuniculus, UniProt P12822); experiment: biochemical; type: tissue-based, Lung;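 note: enzymatic inhibition of angiotensin-converting enzyme measured with FAPGG as the substrate; in other assays of this panel Not Active means under 50% inhibition at 10 µM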
T1 sequence (P12822 whole entry): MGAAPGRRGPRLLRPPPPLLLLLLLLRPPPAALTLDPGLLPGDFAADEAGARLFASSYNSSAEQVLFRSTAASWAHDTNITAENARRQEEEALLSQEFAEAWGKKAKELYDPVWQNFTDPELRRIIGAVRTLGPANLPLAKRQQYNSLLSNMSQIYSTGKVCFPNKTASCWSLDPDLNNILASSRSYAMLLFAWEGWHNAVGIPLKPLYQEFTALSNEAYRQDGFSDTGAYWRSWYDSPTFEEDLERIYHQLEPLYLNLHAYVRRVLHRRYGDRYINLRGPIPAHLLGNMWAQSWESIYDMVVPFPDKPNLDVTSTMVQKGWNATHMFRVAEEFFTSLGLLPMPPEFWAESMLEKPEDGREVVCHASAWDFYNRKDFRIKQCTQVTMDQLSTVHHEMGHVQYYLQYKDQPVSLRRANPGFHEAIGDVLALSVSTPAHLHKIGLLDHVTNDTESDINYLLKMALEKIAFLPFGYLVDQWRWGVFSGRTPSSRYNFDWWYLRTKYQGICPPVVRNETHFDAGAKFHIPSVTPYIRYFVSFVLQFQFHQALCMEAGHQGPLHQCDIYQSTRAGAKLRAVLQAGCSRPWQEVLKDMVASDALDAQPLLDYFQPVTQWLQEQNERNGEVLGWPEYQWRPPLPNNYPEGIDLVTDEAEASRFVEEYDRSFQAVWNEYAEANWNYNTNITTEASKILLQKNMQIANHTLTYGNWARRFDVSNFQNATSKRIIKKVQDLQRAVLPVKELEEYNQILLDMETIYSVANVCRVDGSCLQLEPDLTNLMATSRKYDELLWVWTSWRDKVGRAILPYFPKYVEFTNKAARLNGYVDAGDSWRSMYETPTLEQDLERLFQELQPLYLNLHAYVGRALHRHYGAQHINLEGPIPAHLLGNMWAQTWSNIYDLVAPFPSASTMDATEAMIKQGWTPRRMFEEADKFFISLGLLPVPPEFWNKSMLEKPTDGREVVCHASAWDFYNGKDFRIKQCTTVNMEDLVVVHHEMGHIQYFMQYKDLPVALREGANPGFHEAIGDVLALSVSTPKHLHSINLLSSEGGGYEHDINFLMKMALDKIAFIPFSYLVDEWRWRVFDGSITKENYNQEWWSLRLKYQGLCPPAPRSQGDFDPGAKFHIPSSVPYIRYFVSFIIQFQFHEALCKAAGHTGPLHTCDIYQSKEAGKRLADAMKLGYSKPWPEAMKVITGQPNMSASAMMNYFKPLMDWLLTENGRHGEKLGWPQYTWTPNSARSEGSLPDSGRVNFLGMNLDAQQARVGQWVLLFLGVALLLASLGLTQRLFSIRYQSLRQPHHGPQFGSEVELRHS

[2] = DRUGMATRIX: Nicotinic Acetylcholine radioligand binding (ligand: [125I] Epibatidine); type: cell membranes, Membrane; conditions: imr-32; Not Active = under 50% inhibition at 10 µM
Estrogen receptor beta = Estrogen receptor beta (Homo sapiens, UniProt Q92731); conditions: sf9; note: in other assays of this panel Not Active means under 50% inhibition at 10 µM
Chain of Estrogen receptor beta (Q92731 whole entry): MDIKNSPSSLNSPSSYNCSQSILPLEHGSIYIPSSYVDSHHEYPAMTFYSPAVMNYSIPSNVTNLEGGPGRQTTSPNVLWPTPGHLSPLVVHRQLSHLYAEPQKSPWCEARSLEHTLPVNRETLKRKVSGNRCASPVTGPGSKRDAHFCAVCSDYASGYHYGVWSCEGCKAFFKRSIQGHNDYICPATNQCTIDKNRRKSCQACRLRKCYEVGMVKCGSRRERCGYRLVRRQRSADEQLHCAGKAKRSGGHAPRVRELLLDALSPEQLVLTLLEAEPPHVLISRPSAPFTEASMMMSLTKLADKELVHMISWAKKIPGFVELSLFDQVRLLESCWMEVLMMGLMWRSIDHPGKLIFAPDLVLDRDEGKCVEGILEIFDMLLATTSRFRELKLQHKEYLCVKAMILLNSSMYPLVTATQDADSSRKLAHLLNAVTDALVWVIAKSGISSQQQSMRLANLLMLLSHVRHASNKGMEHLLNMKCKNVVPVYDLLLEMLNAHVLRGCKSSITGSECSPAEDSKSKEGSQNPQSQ

[3] = biological target: C-C chemokine receptor type 2 (Homo sapiens, UniProt P41597); type: cell membranes, CHO-K1, Membrane; conditions: cho-k1; note: in other assays of this panel Not Active means under 50% inhibition at 10 µM
Chain of C-C chemokine receptor type 2 (P41597 whole entry): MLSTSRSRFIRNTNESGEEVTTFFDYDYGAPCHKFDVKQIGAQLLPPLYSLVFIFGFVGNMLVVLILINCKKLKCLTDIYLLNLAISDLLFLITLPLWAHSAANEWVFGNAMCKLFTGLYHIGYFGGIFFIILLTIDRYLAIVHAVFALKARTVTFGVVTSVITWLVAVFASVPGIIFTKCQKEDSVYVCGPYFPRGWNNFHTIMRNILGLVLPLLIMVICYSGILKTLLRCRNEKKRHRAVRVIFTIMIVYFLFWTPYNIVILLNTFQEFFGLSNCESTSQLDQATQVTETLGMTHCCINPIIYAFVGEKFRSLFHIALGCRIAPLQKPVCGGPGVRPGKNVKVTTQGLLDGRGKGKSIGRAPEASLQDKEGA

[4] = DRUGMATRIX: Interleukin IL-1 radioligand binding (ligand: [125I] interleukin 1beta); type: cell membranes, Membrane; conditions: nih3t3; Not Active = under 50% inhibition at 10 µM
[5] = biological target: T2, 3-hydroxy-3-methylglutaryl-coenzyme A reductase (Homo sapiens, UniProt P04035); set-up: species or system Escherichia coli;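 note: enzyme inhibition assay of HMG-CoA reductase using radiolabeled [14C]HMG-CoA as substrate; in other assays of this panel Not Active means under 50% inhibition at 10 µM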
T2 sequence (P04035 whole entry): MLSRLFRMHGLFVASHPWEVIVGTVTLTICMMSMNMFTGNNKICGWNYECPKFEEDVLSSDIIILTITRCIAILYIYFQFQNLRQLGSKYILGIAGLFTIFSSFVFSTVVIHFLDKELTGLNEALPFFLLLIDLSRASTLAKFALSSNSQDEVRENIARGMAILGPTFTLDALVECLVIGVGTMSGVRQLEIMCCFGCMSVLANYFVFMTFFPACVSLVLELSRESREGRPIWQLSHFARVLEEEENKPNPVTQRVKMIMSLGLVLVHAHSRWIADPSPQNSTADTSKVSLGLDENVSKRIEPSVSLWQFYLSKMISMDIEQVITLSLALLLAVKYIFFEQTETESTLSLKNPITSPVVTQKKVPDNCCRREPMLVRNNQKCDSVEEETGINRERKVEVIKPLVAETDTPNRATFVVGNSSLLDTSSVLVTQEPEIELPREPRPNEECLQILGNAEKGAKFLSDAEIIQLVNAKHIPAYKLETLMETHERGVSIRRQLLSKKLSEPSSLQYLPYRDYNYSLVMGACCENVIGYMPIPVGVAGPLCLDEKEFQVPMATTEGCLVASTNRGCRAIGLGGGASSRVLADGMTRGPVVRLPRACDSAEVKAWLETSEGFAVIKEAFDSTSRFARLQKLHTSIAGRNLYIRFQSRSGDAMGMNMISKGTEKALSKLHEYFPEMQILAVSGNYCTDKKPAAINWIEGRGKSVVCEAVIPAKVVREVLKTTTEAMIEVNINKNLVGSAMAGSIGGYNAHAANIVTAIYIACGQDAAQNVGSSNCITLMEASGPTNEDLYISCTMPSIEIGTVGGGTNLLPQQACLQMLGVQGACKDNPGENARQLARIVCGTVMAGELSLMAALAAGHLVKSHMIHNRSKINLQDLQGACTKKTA

Cytochrome P450 2E1 = Cytochrome P450 2E1 (Homo sapiens, UniProt P05181); conditions: bti-tn-5b1-4; note: in other assays of this panel Not Active means under 50% inhibition at 10 µM
Chain of Cytochrome P450 2E1 (P05181 whole entry): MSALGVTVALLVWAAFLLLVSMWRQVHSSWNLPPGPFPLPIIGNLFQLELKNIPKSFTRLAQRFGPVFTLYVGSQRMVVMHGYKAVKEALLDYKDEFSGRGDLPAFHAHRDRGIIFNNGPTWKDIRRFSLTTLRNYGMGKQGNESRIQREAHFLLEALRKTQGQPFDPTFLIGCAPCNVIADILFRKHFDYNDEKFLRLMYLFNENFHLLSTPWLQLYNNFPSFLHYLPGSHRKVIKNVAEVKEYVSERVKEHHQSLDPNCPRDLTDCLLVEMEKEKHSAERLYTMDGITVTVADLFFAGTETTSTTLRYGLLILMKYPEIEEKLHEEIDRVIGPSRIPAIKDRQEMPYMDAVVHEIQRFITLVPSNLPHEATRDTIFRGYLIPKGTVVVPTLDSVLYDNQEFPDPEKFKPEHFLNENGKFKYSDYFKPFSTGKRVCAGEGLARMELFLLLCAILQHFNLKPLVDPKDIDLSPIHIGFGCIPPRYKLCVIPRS

CC1(COc2ccc(CC3SC(=O)NC3=O)cc2)CCCCC1 (centres undefined) [CIGLITAZONE]
Not Active: IC50 [1] | IC50 [2] | Ki [2] | IC50 (Estrogen receptor beta) | IC50 [3] | IC50 [4] | Ki [4] | IC50 [5] | IC50 (Cytochrome P450 2E1) | Ki (Cytochrome P450 2E1)

OC[C@H]1O[C@@H]2O[C@H]3[C@H](O)[C@@H](O)[C@@H](O[C@H]4[C@H](O)[C@@H](O)[C@@H](O[C@H]5[C@H](O)[C@@H](O)[C@@H](O[C@H]6[C@H](O)[C@@H](O)[C@@H](O[C@H]7[C@H](O)[C@@H](O)[C@@H](O[C@H]1[C@H](O)[C@H]2O)O[C@@H]7CO)O[C@@H]6CO)O[C@@H]5CO)O[C@@H]4CO)O[C@@H]3CO [ALFADEX]
Not Active: IC50 [1] | IC50 [2] | Ki [2] | IC50 (Estrogen receptor beta) | IC50 [3] | IC50 [4] | Ki [4] | IC50 [5] | IC50 (Cytochrome P450 2E1) | Ki (Cytochrome P450 2E1)

Nc1nc(F)nc2c1ncn2[C@@H]1O[C@H](CO)[C@@H](O)[C@@H]1O [FLUDARABINE]
Not Active: IC50 [1] | IC50 [2] | Ki [2] | IC50 (Estrogen receptor beta) | IC50 [3] | IC50 [4] | Ki [4] | IC50 [5] | IC50 (Cytochrome P450 2E1) | Ki (Cytochrome P450 2E1)

O=C(O)CO [GLYCOLIC ACID]
Not Active: IC50 [1] | IC50 [2] | Ki [2] | IC50 (Estrogen receptor beta) | IC50 [3] | IC50 [4] | Ki [4] | IC50 [5] | IC50 (Cytochrome P450 2E1) | Ki (Cytochrome P450 2E1)

O=C(NCCN1CCOCC1)c1ccc(Cl)cc1 [MOCLOBEMIDE]
Not Active: IC50 [1] | IC50 [2] | Ki [2] | IC50 (Estrogen receptor beta) | IC50 [3] | IC50 [4] | Ki [4] | IC50 [5] | IC50 (Cytochrome P450 2E1) | Ki (Cytochrome P450 2E1)

CARBOXYMETHYLCELLULOSE
Not Active: IC50 [1] | Ki [1] | IC50 [2] | Ki [2] | IC50 (Estrogen receptor beta) | Ki (Estrogen receptor beta) | IC50 [3] | Ki [3] | IC50 [4] | Ki [4] | IC50 [5] | Ki [5] | IC50 (Cytochrome P450 2E1) | Ki (Cytochrome P450 2E1)

COc1ccccc1OCCNCC(O)COc1cccc2[nH]c3ccccc3c12 (centres undefined) [CARVEDILOL]
Not Active: IC50 [1] | IC50 [2] | Ki [2] | IC50 (Estrogen receptor beta) | IC50 [3] | IC50 [4] | Ki [4] | IC50 [5] | IC50 (Cytochrome P450 2E1) | Ki (Cytochrome P450 2E1)

COc1ccc(C[C@H](N)C(=O)N[C@H]2[C@@H](O)[C@H](n3cnc4c(N(C)C)ncnc43)O[C@@H]2CO)cc1 [PUROMYCIN]
Not Active: IC50 [1] | IC50 [2] | Ki [2] | IC50 (Estrogen receptor beta) | IC50 [3] | IC50 [4] | Ki [4] | IC50 [5] | IC50 (Cytochrome P450 2E1) | Ki (Cytochrome P450 2E1)
